The test system of series [1] is hemostatic system. Nature of the series: Thrombelastography (TEG) of arterial whole blood after i.v. infusion in healthy volunteers. The format is in vivo, human. On the procedure: FIG. 3: Representative TEG profile of healthy volunteers before and after administration of adrenaline. Whole blood was drawn in 1/10 citrate from an arterial catheter. The citrated whole blood sample rested exactly 30 minutes at room temperature before TEG analysis on the Thrombelastograph Hemostasis Analyser, series 5000 (Haemoscope Corp., Skokie, Ill.): One ml of citrated whole blood was transferred to a kaolin vial (Haemoscope Corp.) and gently mixed by inversion 5 times. From the kaolin vial 340 μl was added to a plain TEG cup preloaded with 20 μl of 0.2 M CaCl2 and the analysis started immediately.
FIG. 4: TEG parameters (a) R, (b) Angle and (c) MA of 30 healthy volunteers after totally 15 minutes of i.v. administration of adrenaline. The subjects were catheterized and rested 60 minutes before administration of adrenaline was commenced. Adrenaline was step-wise infused intravenously for 5 minutes at each of the doses 3.5 μg/kg/h, 5.0 μg/kg/h and 6.0 μg/kg/h. Blood samples were collected from an arterial catheter at baseline (t=0) and immediately after each dose (t=5, t=10 and t=15).
FIG. 5: TEG MA measured before and after i.v. infusion of noradrenaline at 4.8 μg/kg/h for 15 minutes in 10 healthy volunteers, mean with 95% Cl. MA before and after noradrenaline was compared by a paired t-test with a p-value<0.05 considered statistically significant.
FIG. 6: TEG MA measured before (t=0) and after i.v. infusion of adrenaline at 4.8 μg/kg/h for 15 minutes (t=15) and 30 minutes after discontinuation of adrenaline administration (t=45). Data presented as mean with 95% Cl.
A whole blood sample for TEG analysis was drawn into a tube containing citrate (9 volumes of blood into 1 volume of 0.129 M citrate; […] system, BD Biosciences, Plymouth, UK) and rested for exactly 30 minutes before analysis: Coagulation was initiated by kaolin and re-calcified according to the instructions of the manufacturer: Citrated whole blood was added to a kaolin vial and mixed by gently inversion 5 times before transfer to the TEG cup containing calcium chloride (20 μl of 0.2 M CaCl2), which was preloaded into the TEG® cup as published previously [Johansson et al. 2008]. The hemostatic process was recorded by use of a TEG® coagulation analyzer (5000 series, Haemoscope Corporation). Adrenaline was mixed with 0.9% NaCl and infused intravenously.
FIG. 3 illustrates TEG profiles from a representative volunteer before and after receiving intravenous infusion of adrenaline 3 μg/kg/h for 15 minutes.

Series [2] deals with hemostatic system. As for the experimental part:
FIG. 7: TEG parameters (a) R, (b) Angle and (c) MA measured as described in FIG. 3 and example 1 on blood samples collected from patients infused with adrenaline prior to prostatectomy. Ten patients were anesthetized by propofol and haldid and infused with adrenaline i.v. in the doses 1, 2 and 3 μg/kg/h each for 5 minutes prior to skin incision. Hereafter the patients were prostatectomised according to local protocol. Blood samples were collected from an arterial catheter before adrenaline administration and immediately after each infusion dose (1, 2 and 3 μg/kg/h) and again 1 hour after discontinuation of adrenaline infusion. Statistics used: One-way ANOVA, Friedman Test, and Dunn's Multiple Comparison post hoc test of “before” compared to each of the following points 1, 2, 3 μg/kg/h and 1 hour after termination of adrenaline infusion, *p<0.05, **p<0.01,***p<0.001, ns: non significant.
Patients undergoing prostatectomy were anaesthetized by propofol and haldid. Prior to skin incision the patients received a step-wise i.v. infusion of adrenaline in the doses 1, 2 and 3 μg/kg/h each for 5 minutes. TEG analyses were performed as described in example 1, exactly 30 minutes after collection of arterial blood. Blood samples were obtained before and after each dose and 1 hour after discontinuation of adrenaline infusion.

The subject of series [3] is hemostatic system. The series can be described thus: TEG MA with combination of adrenergic receptor agonist and antagonists. The format is in vivo, human.
Procedure: FIG. 10: Seven healthy volunteers received 3 doses of adrenaline infusion lasting for 5 minutes each in the following step-wise increasing doses 3.5, 5.0 and 6.0 μg/kg/h. After resting 1 hour, the subjects received 0.15 μg/kg Seloken i.v. and rested again 30 minutes before repeating the step-wise adrenaline infusions. Blood samples were obtained from an arterial catheter at baseline (t=0.0), after each of the first adrenaline doses (t=5.0, t=10.1, t=15.0), at baseline after Seloken administration and rest (t=0.1) and after each of the subsequent adrenaline infusions (t=5.1, t=10.1, t=15.1). The blood was analyzed with TEG as described in FIG. 3 and Example 1. TEG MA values are presented as mean with 95% Cl and analyzed with a 2-way repeated measurements (RM) ANOVA with post hoc Bonferroni adjusted paired t-test of t=0.0 vs. t=5.0, t=10.1, t=15.0, respectively and t=0.1 vs. t=5.1, t=10.1, t=15.1, ***p<0.001.
Healthy volunteers rested 1 hour before receiving step-wise i.v. administration of adrenaline in the doses 3.5, 5.0 and 6.0 μg/kg/h, five minutes infusion at each dose, as described in FIG. 4. Hereafter the subjects rested for 1 hour and received an antagonist by i.v. infusion propanolol (primarily a β-2 antagonist, 0.15 mg/kg for 10 minutes), n=8, Urapidil (α-1 antagonist, 50 mg) or Seloken (β-1 antagonist 0.15 mg/kg for 10 minutes), n=7. […]
Series [4] in a line: Hemodynamic monitoring during adrenaline infusion without or with Seloken. The format is in vivo, human. The text has this: FIG. 11: The healthy subjects described in FIG. 10 were monitored haemodynamically at the same time points as described in FIG. 10. (a) heart rate (HR), (b) cardiac output (CO), (c) stroke volume (SV), (d) invasive blood pressure: mean arterial pressure, MAP) and (d) total peripheral resistance (TPR). […] The conc x treatment is an analysis of the total response/the total pattern, to check whether there is an interaction between concentration and treatment. […] ANOVA: Analysis of variance.
The hemodynamic changes comprising heart rate (HR), cardiac output (CO), stroke volume (SV), mean arterial pressure (MAP) and total peripheral resistance (TPR) were monitored during the protocol described in example 7 and FIG. 10.

Series [5] is described as follows: Plasma potassium concentration before and after adrenaline and Seloken. The format is in vivo, human.
Source text: Plasma K+ concentrations where followed before and after administration of both adrenaline and Seloken (beta blocker).
For series [6] the following is noted: i.v. step-wise 1, 2, 3 μg/kg/h or 3 μg/kg/h for 15 minutes before skin incision, vs 40 control patients.
Procedure: The 2 intervention groups were compared to 40 controls also undergoing prostatectomy, whereof 20 underwent surgery prior to the interventions and the last 20 after the intervention. All values including median for each group is depicted. Comparisons between control group and each of the intervention groups was done separately by Mann Whitney test.
Blood loss of the 10 patients described in example 2 and 10 additional prostatectomy patients receiving a 15 minutes continuous adrenaline infusion of 3 μg/kg/h before skin incision were compared to 40 control patients, not receiving adrenaline, whereof 20 were operated before the interventions and the last 20 subsequently after the intervention (FIG. 8).
Setting [7] is: healthy volunteers, i.v. adrenaline 3 μg/kg/h for 15 minutes (FIG. 3, FIG. 4).
The mark [8] stands for this setting: prostatectomy patients, step-wise i.v. 1, 2 and 3 μg/kg/h each for 5 minutes.
The mark [9] stands for this setting: in response to adrenaline infusions.

Where two headings read alike, the source gives them in different places. Bounds are passed on as bounds.

Procedure for fibrinolysis: Arterial blood was collected in citrate before and after the last adrenaline dose (t=15) and again 30 minutes after end of infusion (t=45). The blood was analyzed with TEG (described in FIG. 3) after addition of tissue plasminogen activator (tPA) in a final concentration of 2.4 nM. (a) A representative example of TEG tracings with tPA induced fibrinolysis before and immediately after infusions of adrenaline. (b) Comparisons of the lysis AUC values t=0 vs. t=15 and t=0 vs. t=45, respectively by 1-way ANOVA, Friedman test and post hoc Dunn's Multiple Comparison Test, **p<0.01, ns: not significant.
When challenging the clot in vitro by induction of fibrinolyis, the Lysis AUC obtained by TEG (see FIG. 2) is a measure of the clot's resistance against fibrinolysis. Healthy subject received step-wise adrenaline infusion as described in FIG. 4, and blood was collected before (t=0), immediately after the infusion (t=15) and 30 minutes after discontinuation (t=45). Citrated whole blood was analysed precisely 30 minutes after blood collection: The fibrinolysis activator tPA (American Diagnostica) was added in a final concentration of 2.4 nM and TEG was performed as described in Example 1 and FIG. 3.

On to `NC[C@H](O)c1ccc(O)c(O)c1` [noradrenaline, 4-(2-Amino-1-hydroxyethyl)benzene-1,2-diol], for which, in the series on hemostatic system [1] (10 healthy subjects, i.v. 4.8 μg/kg/h for 15 minutes (FIG. 5)), the “pro-hemostatic effect (TEG MA)” value is “pro-hemostatic effect”.
`CNC[C@H](O)c1ccc(O)c(O)c1` [adrenaline, (R)-4-(1-hydroxy-2-(methylamino)ethyl)benzene-1,2-diol]: the “time until MA returns to baseline after discontinuation of infusion” value in the series on hemostatic system [1] (healthy volunteers, 4.8 μg/kg/h for 15 minutes (FIG. 6)) is at most 30 min. Further, the MA response result with hemostatic system [1] (healthy volunteers, adrenaline infusion 3.5, 5.0, 6.0 μg/kg/h (FIG. 4c)) is reported as “dose-dependent increase”. Also, in the series with hemostatic system [1] (setting [7]), the “TEG Angle (thrombin generation)” value is given as “increased”, the “TEG MA (mechanical clot strength)” value was “increased” and the “TEG R (initiation of the coagulation process)” value is given as “shorter”. The “pro-hemostatic effect versus dose” value with hemostatic system [2] (1, 2 and 3 microgram/kg/hour, compared to baseline (FIG. 7)) is on record as “dose dependent increase”. In the series on hemostatic system [2] (60 min after discontinuation of infusion, prostatectomy patients), the “pro-hemostatic effect on clot strength (MA) after discontinuation” value is given as “abated”. Besides, the “time until MA returns to baseline after discontinuation of infusion” value in the series with hemostatic system [2] (prostatectomy patients (FIG. 7c)) was at most 60 min. For the same compound, in the series on hemostatic system [2] (setting [8]), the “TEG Angle (propagation and thrombin generation)” value was “increased”; the “TEG MA (mechanical strength of the clot)” value is “increased”; the “TEG R (initiation of the coagulation process)” value is recorded as “decreased”. In addition, the “TEG MA after adrenaline administration” value in the series on hemostatic system [3] (healthy volunteers, step-wise 3.5, 5.0 and 6.0 μg/kg/h (FIG. 10)) is given as “increases”. Further, in series [4] (adrenaline alone, 3.5, 5.0, 6.0 μg/kg/h), the “heart rate (HR)” value is on record as “increased HR significantly”. Also, in series [4] (all adrenaline doses, with and without Seloken), the “total peripheral resistance (TPR)” value is listed as “significant decrease”. Moreover, the “mean arterial pressure (MAP)” value in series [4] (any of the adrenaline doses used) is reported as “no effects”. For the same compound, in series [4] (setting [9]), the “cardiac output (CO)” value is “increase in CO” and the “stroke volume (SV)” value was “increase in SV”. In series [5] (three healthy volunteers), the “plasma potassium concentrations following administration” value is listed as “fell”. In addition, the perioperative blood loss result in series [6] is “reduced perioperative blood loss significantly”. In the series on fibrinolysis (30 minutes after discontinuation of infusion (t=45)), the “effect on Lysis AUC after discontinuation” value is recorded as “abrogated”. For the same compound, in the series on fibrinolysis (healthy subjects, step-wise 3.5, 5.0, 6.0 μg/kg/h, t=15 vs t=0, tPA 2.4 nM), the “increase of Lysis AUC (resistance against fibrinolysis)” value came out at 154%.
Consider `COCCc1ccc(OCC(O)CNC(C)C)cc1` (stereo not shown) [Seloken, Metoprolol], for which the “effect of antagonist on the MA increase after adrenaline” value with hemostatic system [3] (antagonist i.v. 30 minutes before repeated step-wise adrenaline 3.5, 5.0, 6.0 μg/kg/h, Seloken 0.15 mg/kg for 10 minutes) is given as “not affected”. The “adrenaline-induced increase in SV” value in series [4] (after Seloken administration) is listed as “not significantly lowered”. In addition, in series [4] (after Seloken treatment), the “adrenaline-induced decrease in TPR” value is listed as “significantly lower decrease”. The “adrenaline-induced increase in CO” value in series [4] (when Seloken was administered, all adrenaline concentrations) was “significantly lower”. For the same compound, in series [4] (when Seloken was infused before adrenaline), the “adrenaline-induced increase in HR” value is “practically abrogated/normalized”. Also, in series [5] (Seloken administered prior to adrenaline), the “drop in plasma potassium concentration after adrenaline” value is “less”.

(Values after patent US9381166B2 (Rigshospitalet, priority 2007, dated 2016).)
